Experimental data published in US9096593B2, “Compounds and methods for kinase modulation, and indications therefor” (Plexxikon Inc., priority 2009, dated 2015).
pIC50: −log10 of the molar value. Where two headings read alike, the source gives them in different places.

Key:
Flt-3 kinase = Flt-3 kinase (Homo sapiens (Human), UniProt P36888); test: Flt-3 kinase biochemical activity assay (AlphaScreen, biotin-(E4Y)10 phosphorylation); conditions: 100 μM ATP
Description: In one assay the biochemical activity IC50 values are determined with respect to inhibition of Flt-3 kinase activity, where inhibition of phosphorylation of a peptide substrate is measured as a function of compound concentration. Compounds to be tested, dissolved in DMSO (1 μL), are added to a white 384-well plate (Costar #3705). Working stocks of Flt-3 kinase (Invitrogen), biotin-(E4Y)10 substrate (Upstate Biotech, Cat#12-440), and ATP (Sigma, Cat#A-3377) are prepared in 25 mM Hepes pH 7.5, 5 mM MgCl2, 5 mM MnCl2, 1 mM DTT, and 0.01% Tween-20. All components are added to the 384-well plate for a final concentration of 1 ng/well Flt-3, 30 nM biotin-(E4Y)10 and 100 μM ATP in a volume of 20 μL. Each sample is at 5% DMSO. The plate is then incubated for 1 hour at room temperature. Just before use, working stocks of donor and acceptor beads from the AlphaScreen PY20 Detection Kit (PerkinElmer, Cat#676601M) are prepared in 25 mM Hepes pH 7.5, pH 7.4, 100 mM EDTA. 0.3% BSA. To stop the reaction, the plate is uncovered in the dark and 5 μL of Donor Beads solution (Streptavidin beads) is added to each well. The plate is incubated at room temperature for 20 minutes. Five microliters of Acceptor Beads solution (PY20 coated beads) are then added to each well. The final concentration of each bead is 10 μg/mL. The plates are incubated at room temperature for 60 minutes. Fluorescence signal is recorded on the Envision reader. Phosphorylated substrate results in binding of the PY20 antibody and association of the donor and acceptor beads such that signal correlates with kinase activity. The signal vs. compound concentration is used to determine the IC50.

CYP1A2 = CYP1A2 (Homo sapiens (Human), UniProt P05177); test: CYP enzyme inhibition, fluorescent substrate; conditions: for pIC50: human, 15 min
Chain of CYP1A2 (P05177 whole entry): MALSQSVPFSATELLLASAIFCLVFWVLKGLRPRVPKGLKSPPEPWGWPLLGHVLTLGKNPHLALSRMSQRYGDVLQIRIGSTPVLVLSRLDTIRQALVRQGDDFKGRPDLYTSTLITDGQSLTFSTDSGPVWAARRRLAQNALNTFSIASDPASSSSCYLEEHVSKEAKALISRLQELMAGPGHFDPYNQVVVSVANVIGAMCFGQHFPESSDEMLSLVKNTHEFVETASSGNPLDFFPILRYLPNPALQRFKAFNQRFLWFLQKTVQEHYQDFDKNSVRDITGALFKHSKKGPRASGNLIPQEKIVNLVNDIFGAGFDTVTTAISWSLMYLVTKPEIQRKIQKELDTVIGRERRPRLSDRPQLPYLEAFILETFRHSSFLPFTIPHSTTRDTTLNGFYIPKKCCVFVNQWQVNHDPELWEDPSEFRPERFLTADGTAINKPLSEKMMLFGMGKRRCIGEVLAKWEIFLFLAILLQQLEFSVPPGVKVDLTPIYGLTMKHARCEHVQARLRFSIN

CYP2C19 = CYP2C19 (Homo sapiens (Human), UniProt P33261); test: CYP enzyme inhibition, fluorescent substrate; conditions: for IC50: read-out: Cyp IC50 (μM) 2C19
Chain of CYP2C19 (P33261 whole entry): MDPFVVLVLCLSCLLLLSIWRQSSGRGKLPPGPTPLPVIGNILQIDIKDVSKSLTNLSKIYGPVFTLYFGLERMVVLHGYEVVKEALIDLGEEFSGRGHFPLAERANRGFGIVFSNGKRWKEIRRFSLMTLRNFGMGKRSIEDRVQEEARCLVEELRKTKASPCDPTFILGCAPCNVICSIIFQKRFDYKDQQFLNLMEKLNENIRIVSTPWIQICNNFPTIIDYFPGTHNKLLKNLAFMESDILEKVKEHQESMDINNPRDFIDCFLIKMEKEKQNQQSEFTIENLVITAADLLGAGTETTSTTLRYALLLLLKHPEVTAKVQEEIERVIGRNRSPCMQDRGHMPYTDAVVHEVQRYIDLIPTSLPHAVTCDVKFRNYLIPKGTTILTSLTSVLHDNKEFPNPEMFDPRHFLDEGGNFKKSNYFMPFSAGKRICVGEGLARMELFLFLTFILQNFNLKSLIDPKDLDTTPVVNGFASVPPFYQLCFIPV
Outline: (§1)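 […]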

CYP2C9 = CYP2C9 (Homo sapiens (Human), UniProt P11712); test: CYP enzyme inhibition, fluorescent substrate; conditions: for IC50: read-out: Cyp IC50 (μM) 2C9
Chain of CYP2C9 (P11712 whole entry): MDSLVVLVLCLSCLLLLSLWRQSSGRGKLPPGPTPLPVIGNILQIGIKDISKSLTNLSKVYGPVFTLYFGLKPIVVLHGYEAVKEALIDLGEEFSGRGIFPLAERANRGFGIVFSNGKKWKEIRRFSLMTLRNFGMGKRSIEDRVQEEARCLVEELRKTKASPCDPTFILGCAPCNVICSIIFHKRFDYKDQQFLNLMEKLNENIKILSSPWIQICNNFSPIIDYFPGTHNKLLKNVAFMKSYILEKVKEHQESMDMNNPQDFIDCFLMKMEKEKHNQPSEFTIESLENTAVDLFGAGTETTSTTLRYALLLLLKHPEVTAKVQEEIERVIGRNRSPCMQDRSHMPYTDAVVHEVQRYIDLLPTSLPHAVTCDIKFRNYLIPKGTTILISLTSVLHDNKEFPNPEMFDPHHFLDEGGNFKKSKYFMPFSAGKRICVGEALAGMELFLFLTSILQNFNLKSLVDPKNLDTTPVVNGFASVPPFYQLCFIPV
Outline: as §1

CYP2D6 = CYP2D6 (Homo sapiens (Human), UniProt P10635); test: CYP enzyme inhibition, fluorescent substrate; conditions: for IC50: read-out: Cyp IC50 (μM) 2D6
Chain of CYP2D6 (P10635 whole entry): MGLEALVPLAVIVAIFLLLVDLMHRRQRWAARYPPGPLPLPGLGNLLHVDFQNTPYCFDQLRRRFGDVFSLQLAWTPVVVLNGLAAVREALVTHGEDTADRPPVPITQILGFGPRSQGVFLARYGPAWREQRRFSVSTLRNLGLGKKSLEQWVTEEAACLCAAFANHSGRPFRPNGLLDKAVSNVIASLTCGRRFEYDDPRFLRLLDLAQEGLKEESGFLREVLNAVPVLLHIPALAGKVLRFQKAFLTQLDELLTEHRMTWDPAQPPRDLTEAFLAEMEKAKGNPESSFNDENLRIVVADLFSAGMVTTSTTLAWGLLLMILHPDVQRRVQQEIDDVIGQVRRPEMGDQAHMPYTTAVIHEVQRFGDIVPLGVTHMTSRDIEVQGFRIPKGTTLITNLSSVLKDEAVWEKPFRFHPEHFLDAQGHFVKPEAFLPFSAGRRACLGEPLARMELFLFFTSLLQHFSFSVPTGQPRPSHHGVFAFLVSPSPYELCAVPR

CYP3A4(BFC) = CYP3A4(BFC) (Homo sapiens (Human), UniProt P08684); test: CYP enzyme inhibition, fluorescent substrate; conditions: for IC50: read-out: Cyp IC50 (μM) 3A4(BFC), BFC substrate
Chain of CYP3A4(BFC) (P08684 whole entry): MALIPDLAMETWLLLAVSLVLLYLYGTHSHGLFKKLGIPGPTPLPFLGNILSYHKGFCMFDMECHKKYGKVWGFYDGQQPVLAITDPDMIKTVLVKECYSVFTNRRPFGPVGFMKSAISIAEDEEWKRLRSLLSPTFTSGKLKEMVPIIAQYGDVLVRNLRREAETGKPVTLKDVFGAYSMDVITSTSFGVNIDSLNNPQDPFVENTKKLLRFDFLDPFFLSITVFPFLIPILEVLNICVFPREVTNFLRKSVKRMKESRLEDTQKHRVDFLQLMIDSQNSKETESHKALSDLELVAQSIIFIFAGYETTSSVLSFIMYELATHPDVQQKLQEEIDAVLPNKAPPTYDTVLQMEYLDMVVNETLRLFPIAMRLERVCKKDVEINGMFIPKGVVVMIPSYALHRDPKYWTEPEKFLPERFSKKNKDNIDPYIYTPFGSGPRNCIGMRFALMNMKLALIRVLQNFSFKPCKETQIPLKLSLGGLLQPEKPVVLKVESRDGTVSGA
Outline: as §1

CYP3A4(BQ) = CYP3A4(BQ) (Homo sapiens (Human), UniProt P08684); test: CYP enzyme inhibition, fluorescent substrate; conditions: for IC50: read-out: Cyp IC50 (μM) 3A4(BQ), BQ substrate
Chain of CYP3A4(BQ) (P08684 whole entry): as above
Outline: as §1

Chain of Flt-3 kinase (P36888 27-993): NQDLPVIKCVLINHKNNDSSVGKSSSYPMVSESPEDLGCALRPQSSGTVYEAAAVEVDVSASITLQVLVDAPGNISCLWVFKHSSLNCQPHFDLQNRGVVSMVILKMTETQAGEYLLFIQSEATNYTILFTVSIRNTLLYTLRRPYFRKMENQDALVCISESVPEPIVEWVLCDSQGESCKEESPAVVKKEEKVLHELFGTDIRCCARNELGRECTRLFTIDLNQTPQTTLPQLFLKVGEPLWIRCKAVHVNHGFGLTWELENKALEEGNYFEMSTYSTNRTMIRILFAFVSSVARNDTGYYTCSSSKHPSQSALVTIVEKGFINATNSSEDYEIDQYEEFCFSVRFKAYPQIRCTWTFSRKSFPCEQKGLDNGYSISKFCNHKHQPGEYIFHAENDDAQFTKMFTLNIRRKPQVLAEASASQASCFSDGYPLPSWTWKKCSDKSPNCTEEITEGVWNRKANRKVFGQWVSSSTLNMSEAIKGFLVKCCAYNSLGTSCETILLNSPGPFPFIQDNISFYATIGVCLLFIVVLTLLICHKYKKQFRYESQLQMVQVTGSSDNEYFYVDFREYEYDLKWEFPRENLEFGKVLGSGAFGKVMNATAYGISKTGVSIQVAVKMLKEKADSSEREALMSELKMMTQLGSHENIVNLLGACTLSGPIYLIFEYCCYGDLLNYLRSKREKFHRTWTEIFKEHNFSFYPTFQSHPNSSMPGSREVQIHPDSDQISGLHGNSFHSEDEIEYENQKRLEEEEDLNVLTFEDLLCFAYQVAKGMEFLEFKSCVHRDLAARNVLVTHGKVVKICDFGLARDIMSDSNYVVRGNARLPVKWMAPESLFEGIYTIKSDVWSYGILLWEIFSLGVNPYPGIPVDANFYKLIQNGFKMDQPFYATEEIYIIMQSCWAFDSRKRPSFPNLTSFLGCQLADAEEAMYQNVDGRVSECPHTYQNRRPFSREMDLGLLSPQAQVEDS

Row | Structure (SMILES) | IC50 (Flt-3 kinase) [µM] | IC50 (CYP1A2; read-out: Cyp IC50 (μM) 1A2) [µM] | pIC50 (CYP2C19) | IC50 (CYP2C9) [µM] | pIC50 (CYP2D6) | IC50 (CYP3A4(BFC)) [µM] | pIC50 (CYP3A4(BQ)) | pIC50 (CYP1A2) | pIC50 (CYP2C9; human, CYP2C9 enzyme (BD Biosciences), 45 min) | IC50 (CYP2D6) [µM] | IC50 (CYP3A4(BQ)) [µM] | IC50 (CYP2C19) [µM] | pIC50 (CYP3A4(BFC)) | pIC50 (CYP2C9)
1 | Fc1ccc(CNc2ccc(Cc3c[nH]c4ncc(Cl)cc34)cn2)cn1 [Compound P-2004, [5-(5-chloro-1H-pyrrolo[2,3-b]pyridin-3-ylmethyl)-pyridin-2-yl]-(6-fluoro-pyridin-3-ylmethyl)-amine] | < 0.1 | > 10 | 5.00 to 5.30 | < 5 | 5.00 to 5.30 | < 5 | 5.00 to 5.30 | – | – | – | – | – | – | –
2 | Cc1cnc2[nH]cc(Cc3ccc(NCc4ccc(C(F)(F)F)nc4)nc3)c2c1 [Compound P-2019, [5-(5-Methyl-1H-pyrrolo[2,3-b]pyridin-3-ylmethyl)-pyridin-2-yl]-(6-trifluoromethyl-pyridin-3-ylmethyl)-amine] | < 0.1 | – | 5.00 to 5.30 | – | – | < 5 | – | < 5.00 | > 5.30 | < 5 | > 10 | – | – | –
3 | COc1ccc(CNc2ccc(Cc3c[nH]c4ncc(C)cc34)c(F)n2)cn1 [Compound P-2029, [6-Fluoro-5-(5-methyl-1H-pyrrolo[2,3-b]pyridin-3-ylmethyl)-pyridin-2-yl]-(6-methoxy-pyridin-3-ylmethyl)-amine] | < 0.1 | – | – | < 5 | – | – | 5.00 to 5.30 | < 5.00 | – | > 10 | – | < 5 | 5.00 to 5.30 | –
4 | COc1cnc2[nH]cc(Cc3ccc(NCc4ccc(OC)nc4)nc3F)c2c1 [Compound P-2030, [6-Fluoro-5-(5-methoxy-1H-pyrrolo[2,3-b]pyridin-3-ylmethyl)-pyridin-2-yl]-(6-methoxy-pyridin-3-ylmethyl)-amine] | < 0.1 | – | – | < 5 | – | – | – | < 5.00 | – | > 10 | > 10 | < 5 | 5.00 to 5.30 | –
5 | COc1ccnc2[nH]cc(Cc3ccc(NCc4ccc(Cl)cc4)nc3F)c12 [Compound P-2037, (4-Chloro-benzyl)-[6-fluoro-5-(4-methoxy-1H-pyrrolo[2,3-b]pyridin-3-ylmethyl)-pyridin-2-yl]-amine] | < 0.1 | – | – | < 5 | – | – | – | < 5.00 | – | > 10 | > 10 | < 5 | 5.00 to 5.30 | –
6 | COc1ccc(CNc2ncc(Cc3c[nH]c4ncc(C)cc34)cn2)cn1 [Compound P-2057, (6-Methoxy-pyridin-3-ylmethyl)-[5-(5-methyl-1H-pyrrolo[2,3-b]pyridin-3-ylmethyl)-pyrimidin-2-yl]-amine] | < 0.1 | – | 5.00 to 5.30 | – | – | > 10 | – | < 5.00 | – | > 10 | > 10 | – | – | 5.00 to 5.30
7 | COc1ncc(CNc2ccc(Cc3c[nH]c4ncc(Cl)cc34)c(F)n2)cc1F [Compound P-2165, [5-(5-Chloro-1H-pyrrolo[2,3-b]pyridin-3-ylmethyl)-6-fluoro-pyridin-2-yl]-(5-fluoro-6-methoxy-pyridin-3-ylmethyl)-amine] | < 0.1 | – | – | > 10 | – | > 10 | – | < 5.00 | – | > 10 | > 10 | > 10 | – | –
